Test results: patent US11767298B2, “Substituted benzimidazoles as inhibitors of transforming growth factor-β kinase” (Duke University, priority 2016, dated 2023)
“And” between values parts separate entries of the source, which are not always exact repeats. Identical values can stand only once. Like-named read-outs stand apart in the source and are kept apart here.

Experiments:
[1] = biological target: GFP-PfPK9 (Plasmodium falciparum, UniProt Q8IEG4); experiment: ATP-competitive binding assay (ATP-sepharose pull-down, FLECS)
Description: Primary small-molecule screen. A small-molecule screen was performed similar to a previously reported fluorescence linked enzyme chemoproteomic strategy (FLECS). Briefly, HEK293-GFP-PfPK9 cells were grown in 182-cm^2 tissue culture flasks (Genesee Scientific) and harvested at ˜80% cell confluency. Before assays the culture medium was aspirated, cells were rinsed with ice cold PBS and then they were removed with a cell scraper. Cells were pelleted by centrifugation (2,000 rpm, 4° C., 2 min) and immediately lysed for assays. The pellet was suspended in buffer A (25 mM HEPES, pH 7.4, 150 mM NaCl, 60 mM MgCl2, 1 mM DTT) with 1 μM microcystin, 0.1% Triton X-100 plus a Roche Complete protease inhibitor tablet and then placed on ice for 30 min to facilitate lysis. The supernatant was collected after centrifugation (4,300 rpm, 4° C., 5 min) and used in subsequent screening and titrations experiments. For screening, the supernatant was added to ATP-sepharose beads (1:1) and incubated with agitation at 4° C. for at least 1 hr to allow binding. Following this incubation, the mixture was centrifuged, the ATP resin was washed with 9 column volumes of buffer A with 1 M NaCl and then 9 column volumes of buffer A. The ATP-sepharose medium was reconstituted as a 1:1 slurry with buffer A and then added to 96-well filter plates (50 μL/well) (Corning #3505) using a multichannel pipette (Rainin). The filter plate was on top of black 96-well catch plates (Corning #3915). An ATP dilution series (1-200 mM) was added to each plate as a positive control and DMSO was the negative control. Compounds and controls were all added to 50 μL per well in buffer A. For screening, compounds were tested in singlicate at 500 μM. The final DMSO concentration in every well was 5%. The fluorescence intensity in each well was measured on an EnVision system. Data analyses of screens were carried out in EXCEL (Microsoft, Corp.) and actives were identified as 2×background signal.
All screening positives that were verified with Western blot analysis were purchased from Enamine or Vitas-M laboratory. The purity of compounds 1-5 (shown below) was verified by high-resolution MS (Agilent). Compounds were tested in 8-point dose-response (0-500 μM) experiments in duplicate, essential as described above. The fluorescence intensity in each well was measured using an EnVision system. Dose-response analysis was performed with GraphPad Prism to acquire EC50 values. Determined EC50 values were used to calculate the observed PfPK9 Kd and reported values are the average of 2-3 independent experiments.
Stable cell line generation. The P. falciparum PK9 gene (PlasmoDB accession #PF3D7_1315100) was cloned into the pEGFP-C1 mammalian expression vector (Clontech) in frame with a […] GFP tag. For screening, HEK293 cells were transfected with the resulting PfPK9-pEGFP-C1 vector to generate HEK293-GFP-PfPK9 expressing cells using X-tremeGENE HP transfection reagent (Roche) per the manufacturer instructions. Briefly, the culture medium was replaced at 48 hours post-transfection with medium supplemented with 1 mg/mL G418 sulfate (Life Technologies) to select for stably transfected cells. Following stable cell selection, fluorescence activated cell sorting (FACS) was used to enrich for GFP-PfPK9 expressing cells. Subsequently, FACS sorted HEK293-GFP-PfPK9 cells were cultured with medium supplemented with 0.5 mg/mL G418 sulfate for all following experiments. Protein expression was verified by Western blot analysis probing for anti-GFP and by fluorescence intensity using an EnVision (PerkinElmer) system.
All 14 positive molecules were also tested for their binding affinity to PfPK9 using an optimized ATP-competitive binding assay. EC50 values ranging from low μM to low mM were observed and these EC50 values were used to derive dissociation constants as described previously. […]

[2] = test system: P. berghei; experiment: Liver stage parasite load, luciferase-expressing P. berghei in HepG2 cells; assay type: cell-based, Plasmodium berghei ANKA; conditions: HepG2 host cells
Description: (§1) Cell-based anti-Plasmodium assays. For liver stage assays, 15,000 HepG2 or 8,000 Huh7 cells/well were added to 384-well microtiter plates using a multichannel pipette (Rainin). After 2 hours at 37° C., compounds (0-100 μM) were added to cells in duplicate or triplicate in a final concentration of 1% DMSO. DMSO was used as the negative control. Following compound incubation at 37° C. for ˜1 hr, harvested luciferase-expressing P. berghei ANKA sporozoites were added to the plates at a density of 3,000 sporozoites/well. P. berghei ANKA sporozoites were obtained from harvesting the salivary glands of infected A. stephensi mosquitoes. The plates were spun for 10 min at 1,000 rpm, and then incubated at 37° C. for ˜45 hrs. […] After ˜45 hours at 37° C., liver cell viability was assessed using CellTiter-Fluor (Promega) and then parasite load was determined using Bright-Glo (Promega). The relative fluorescence and luminescence signal intensity of each well was evaluated with an EnVision System. The luminescence signal in the presence of compounds was normalized to the negative control (DMSO). Dose-response analysis was performed with GraphPad Prism to yield the reported EC50 values.
(§2) Anti-Plasmodium activity was evaluated in the parasite's liver stage using a previously reported high-throughput assay. In this assay, luciferase-expressing P. berghei (murine) parasites are used to infect human hepatoma cells (HepG2) and parasite load is assessed with a luminometer subsequent to evaluating HepG2 viability using a commercially available quantification kit that measures intracellular protease activity.
(§3) Specifically, their ability to inhibit P. berghei infection in two human hepatoma cell lines (HepG2 and Huh7) as well as cytotoxicity against HepG2 and Huh7 cells was determined as described above. Liver cell cytotoxicity was evaluated with two different commercially available assays, one that tests for intracellular protease activity with a fluorescence reporter and another that relies on the luminescent detection of total ATP.

[3] = test system: P. berghei; experiment: Liver stage parasite load, luciferase-expressing P. berghei in Huh7 cells; assay type: cell-based, Plasmodium berghei ANKA; conditions: Huh7 host cells, read-out: IC50 Liver state (Huh7)
Description: as §1, §3

[4] = test system: HepG2 cells; experiment: HepG2 cell viability / cytotoxicity; assay type: cell-based, human
Description: as §1, §2, §3

[5] = test system: Huh7 cells; experiment: Huh7 cell viability / cytotoxicity; assay type: cell-based, human
Description: as §1, with “After 2 hours at 37° C., compounds (0-100 μM) were added to cells in duplicate or triplicate in a final concentration of 1% DMSO.” left out
as §3

[6] = biological target: T1, TAK1-TAB1 (Homo sapiens, UniProt O43318); experiment: TAK1-TAB1 kinase assay ([32P]-ATP); assay type: biochemical; conditions: compared to 206 (FIG. 14)
T1 sequence (O43318 with tags, fused parts or gaps limits assumed): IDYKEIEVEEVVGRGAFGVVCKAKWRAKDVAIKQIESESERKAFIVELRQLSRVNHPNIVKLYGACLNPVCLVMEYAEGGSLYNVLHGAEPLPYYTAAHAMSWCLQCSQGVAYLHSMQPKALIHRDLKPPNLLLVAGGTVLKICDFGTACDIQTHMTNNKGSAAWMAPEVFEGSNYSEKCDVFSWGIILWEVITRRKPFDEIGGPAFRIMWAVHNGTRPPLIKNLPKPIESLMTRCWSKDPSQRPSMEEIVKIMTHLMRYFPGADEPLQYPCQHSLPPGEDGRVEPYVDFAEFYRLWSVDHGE
Description: Kinase Assay. […] In brief, TAK1-TAB1 (50 ng/well) was incubated with 5 μM ATP containing radiolabeled [^32P]-ATP in the presence of 300 μM substrate peptide ([…]) in a final volume of 40 μl in the presence of buffer (containing 50 mM Tris pH 7.5, 0.1 mM EGTA, 0.1% β-Mercaptoethanol, 10 mM magnesium acetate, 0.5 mM MnCl) and indicated compounds. The reaction was let go for 10 min and stopped with 10 μl concentrated H3PO4. The remaining activity was measured using a scintillation counter. Dose-response curves were repeated 3 times. For kinetic mechanistic studies, experiments were repeated two times and averaged.
A challenge in designing chemical biology probes lies in choosing an appropriate ligand for a protein target and developing chemistry that allows attachment of a linker without disrupting activity of the ligand. […] The focus was on modifying the aminobenzimidazole moiety.

[7] = GFP-PfPK9, Kd calculated from EC50 of ATP pull-down dose-response, read-out: Kd, app
[8] = Plasmodium berghei, HepG2, parasite load
[9] = Plasmodium berghei, Huh-7, parasite load

GFP-PfPK9, sequence (Q8IEG4 entry or part of it): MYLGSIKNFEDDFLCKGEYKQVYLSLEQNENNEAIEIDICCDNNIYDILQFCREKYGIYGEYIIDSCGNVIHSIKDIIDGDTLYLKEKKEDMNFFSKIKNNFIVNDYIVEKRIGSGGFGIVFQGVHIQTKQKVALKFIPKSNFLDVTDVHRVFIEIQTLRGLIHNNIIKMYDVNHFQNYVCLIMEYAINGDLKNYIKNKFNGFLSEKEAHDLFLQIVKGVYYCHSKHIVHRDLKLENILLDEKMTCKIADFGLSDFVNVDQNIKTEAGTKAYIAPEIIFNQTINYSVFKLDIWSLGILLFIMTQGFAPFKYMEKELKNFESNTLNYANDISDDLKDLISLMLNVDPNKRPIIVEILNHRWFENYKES

Row | activity / potency in TAK1 kinase assay [6] | SMILES | Kd [1, 7] | IC50 [2, 8] [µM] | IC50 [3, 9] [µM] | also measured
1 |  | O=C(Nc1cccc2cnccc12)C1CCCN(c2cnccn2)C1 (stereo not drawn) [compound 4] | 3.2 µM | 55 | 33 | IC50 ([2]; parasite load): 54.5 µM; IC50 ([3]; parasite load): 33.3 µM; effect on liver cell viability ([4]; HepG2, concentrations up to 200 μM): neither compound 4 or 5 had any significant effects on cell viability; effect on liver cell viability ([5]; concentrations up to 200 μM): neither compound 4 or 5 had any significant effects on cell viability
2 | did not show activity | NC(=O)c1cccc(C(=O)/N=c2\[nH]c3cc(Br)ccc3s2)c1 [HS-232] |  |  |  | 
3 |  | CCCn1c(NC(=O)c2nn(-c3ccccc3)cc2OC)nc2ccccc21 [compound 2] | ~7 µM and 7 µM | 4.5 | 0.09 | cytotoxic effect on cell viability vs DMSO control ([4]; HepG2, 30 μM): significant cytotoxic effect; cytotoxic effect on cell viability vs DMSO control ([5]; 30 μM): significant cytotoxic effect
4 | slight reduction in potency | CCCn1/c(=N/C(=O)c2cccc(C(N)=O)c2)[nH]c2cc(/C=C/C(=O)OC)ccc21 [HS-235] |  |  |  | 
5 | slight reduction in potency | CCCn1/c(=N/C(=O)c2cccc(C(N)=O)c2)[nH]c2ccc(/C=C/C(=O)O)cc21 [HS-233] |  |  |  | 
6 |  | CCCn1c(NC(=O)c2cncn2-c2ccc(F)cc2)nc2ccccc21 [compound 3] | 0.6 µM | 7.3 | 4 | cytotoxicity in HepG2 cells ([4]; concentration not given): moderate cytotoxicity
7 |  | Nc1ncnc2c1ncn2[C@@H]1O[C@H](COP(=O)(O)OP(=O)(O)OP(=O)(O)O)[C@@H](O)[C@H]1O [ATP, reference compound] |  |  |  | Kd ([1]; native substrate, read-out: apparent Kd of ATP for GFP-PfPK9): ~400 µM
8 | slight reduction in potency | CCCn1/c(=N/C(=O)c2cccc(C(N)=O)c2)[nH]c2cc(/C=C/C(=O)O)ccc21 [HS-234] |  |  |  | 
